These results are taken from patent US20240415805A1 (priority 2023, published 2024).

Data set [1] deals with Pg 33277. The data set can be described thus: Antibiotic protection assay: invasion of Pg cells into human primary oral keratinocytes. In kind it is cell-based. The conditions noted are these: Porphyromonas gingivalis, 33277, Keratinocyte, read-out: Pg inhibited from entry into HOKs. Here is the method:
Inhibition of Pg cells invasion by GM. The ability of Pg to invade oral epithelial cells was determined using an antibiotic protection assay as described^28. Human primary oral keratinocytes (HOKs, 5×10^4 cells, ScienCell® Research Laboratories) were seeded in a 24-well plate. After incubating with Pg 33277 for 1 h, HOKs were continually cultured for another 4 h in the presence of antibiotics (gentamicin (300 μg/ml) and metronidazole (200 μg/ml)) to eliminate extracellular bacteria. The HOKs were then lysed, and the internalized bacteria were plated on TSB blood agar plates. The plates were incubated anaerobically at 37° C. for 7 days, and CFUs of Pg were enumerated. […] In the presence of 40 nM GM, more than 95% of Pg were inhibited from entry into HOKs. In addition, the role of GM in Pg re-entry was tested. After exposure to Pg cells for 1 h and then antibiotic treatment for 4 h, HOKs were continuously cultured for 24 h in the presence of GM (20 nM), antibiotics, or GM and antibiotics. Intracellular Pg was determined as described^28. As expected, intracellular Pg cells moved in and out of the HOKs.

Data set [2] has as its system HOKs. The data set can be described thus: HOK cell viability (Promega CellTiter-Glo). In kind it is cell-based, human. Particulars: 48 h. Here is the method:
Each bar represents the mean±standard deviation of luminescence levels representing relative the number of viable cells. Data are the mean of at least three independent experiments.
To examine potential cytotoxic effects of GM, HOKs were cultured in the presence of a range of GM from 0 to 1,000 nM for 48 h and the number of viable cells in the culture was determined using Promega™ CellTiter-Glo™.
On the technique in general: ATP-based viability assays read luminescence as a measure of living cells.

The subject of data set [3] is Pg 33277 vesicles. The conditions noted are these: 30 μM; previously reported; cited from earlier work.

Entries after “also recorded” stand apart in the source; their conditions may differ.

For the compound `C=C(C)[C@@]12C[C@@H](COC(=O)c3ccccc3)[C@@]34OC5(O[C@@H]1[C@@H]3[C@@H]1O[C@]1(CO)[C@@H](O)[C@@]1(O)[C@H]4[C@H]([C@H](C)[C@@H]1OC(=O)c1ccccc1)[C@H](C)CCCCCC[C@H]5O)O2` [GM, gnidimacrin], the inhibition at 0.04 µM in data set [1] is > 95%. Besides, the “cell viability of HOKs” value in data set [2] (GM 0 to 1,000 nM, as high as luM) is listed as “does not affect host cell viability; also recorded: no impact”. Also, the “highest concentration without viability effect relative to the concentration that inhibits Pg invasion” value in data set [2] (HOKs) was “approximately 50 times”.

Turning to `O=C(N/N=C/c1ccc(O)c(O)c1)c1cc2ccccc2cc1O` [dynasore], the Pg vesicle invasion result in data set [3] is reported as “inhibited the vesicle invasion”.
